Reference: patent publication US7371563B2, “Peelable and resealable devices for biochemical assays” (Surface Logix, Inc., priority 2000, dated 2008)

Molecular target: T1, β1,4-galactosyltransferase (Bos taurus, UniProt P08037)
T1 sequence (P08037 1-402): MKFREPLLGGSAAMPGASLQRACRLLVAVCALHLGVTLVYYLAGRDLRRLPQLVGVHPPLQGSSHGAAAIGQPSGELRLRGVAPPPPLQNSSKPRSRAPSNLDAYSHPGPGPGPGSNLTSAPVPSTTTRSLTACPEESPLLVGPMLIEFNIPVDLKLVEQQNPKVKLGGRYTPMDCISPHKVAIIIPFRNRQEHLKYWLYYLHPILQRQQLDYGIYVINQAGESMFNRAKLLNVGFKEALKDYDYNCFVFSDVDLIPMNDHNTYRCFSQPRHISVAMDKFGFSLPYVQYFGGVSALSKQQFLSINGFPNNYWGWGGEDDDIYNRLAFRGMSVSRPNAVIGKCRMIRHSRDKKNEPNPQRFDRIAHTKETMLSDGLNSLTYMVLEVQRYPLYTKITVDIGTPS
Experiment: Glycosyltransferase assay on immobilized carbohydrates
Type: biochemical, bovine
Conditions: immobilized carbohydrate; UDP [^14C] galactose, 3.5 μM; phosphorimaging
Description: FIG. 41 represents the results of a glycosyltransferase assay. The surface comprises 3 different carbohydrate substrates defined by columns and a control column (no substrate). Each row was reacted with a different concentration of β1,4-galactosyltransferase and a constant concentration of sugar donor (UDP [^14C] galactose, 3.5 μM). The reaction was detected by phosphorimaging.
Referring to FIG. 41, in the glycosyltransferase assay, various carbohydrates were immobilized using a thiol chemical tag to bond to a monolayer thiolate bearing a maleimide group. A glycosyltransferase enzyme was added to the immobilized carbohydrates. The ability of the enzyme to add radioactively labeled sugars to the immobilized carbohydrates was measured. In the glycosyltransferase assay the enzyme that was employed is bovine recombinant β 1,4-galactosyltransferase. Preferably, the enzyme is at a concentration of about 10 pM to about 100 uM. More preferably, the enzyme is at a concentration of about 100 pM to about 1 uM. […]
Detection of glycosylation of the immobilized carbohydrate substrates on the base plate was performed radiometrically. The incorporation of ^14C was quantified by exposing a storage phosphor screen to the plate and then imaging it on a Variable Mode Imager (Typhoon 8600; Molecular Dynamics, Sunnyvale, Calif.). […]

## CC(=O)N[C@H]1C(O)O[C@H](CO)[C@@H](O)[C@@H]1O (stereo partly shown) [GlcNAc]
  substrate for β1,4-galactosyltransferase: only the immobilized GlcNAc was a substrate
